From patent US20230051589A1, “COMPOUNDS AND COMPOSITIONS FOR TREATING CONDITIONS ASSOCIATED WITH NLRP ACTIVITY” (Novartis AG, priority 2018, published 2023)

test system: IL-1β production in PMA-differentiated THP-1 cells; experiment: IL-1β production in PMA-differentiated THP-1 cells stimulated with gramicidin (hTHP-1 assay, 2% fetal bovine serum; Procedures 1-3); type: cell-based, human; conditions: Homo sapiens, THP-1, hTHP-1 assay containing 2% fetal bovine serum, Table B2, class symbols; read-out: IC50
Method in brief: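 PMA-primed THP-1 cells (20 ng/ml PMA, 16-18 h) in RPMI with 2% FBS were pre-incubated with compounds for 1 h, from 100 μM downward in 3-fold steps (0.37% DMSO final), then stimulated with 5 μM gramicidin for 2 h. IL-1β in the supernatant was quantified by HTRF.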

Row | Compound | IC50 [nM]
1 | NS(=O)(=NC(=O)Nc1c2c(cc3c1CCC3)CCC2)c1ccc(C2CCCN2)cc1 (single isomer, unassigned) [Example 648, (R,R) or (S,R)-N′-((1,2,3,5,6,7-hexahydro-s-indacen-4-yl)carbamoyl)-4-(pyrrolidin-2-yl) benzenesulfonimidamide] | 1000 to 5000
2 | CN(C)C(c1ccc(S(N)(=O)=NC(=O)Nc2c3c(cc4c2CCC4)CCC3)cc1)C(F)(F)F (single isomer, unassigned) [Example 664] | 200 to 1000

same assay, conditions: Homo sapiens, THP-1, hTHP-1 assay containing 2% fetal bovine serum, Table B2, given as bound; read-out: IC50

Row | Compound | IC50 [nM]
3 | CC(OC(F)F)c1ccc(S(N)(=O)=NC(=O)Nc2c3c(cc4c2CCC4)CCC3)cc1 (single isomer, unassigned) [Example 643] | > 30000
4 | CC(C)(O)c1cnc(S(N)(=O)=NC(=O)Nc2c3c(cc4c2C(O)CC4)CCC3)s1 (single isomer, unassigned) [Example 654, (S,R) or (S,S)-N′-((-3-hydroxy-1,2,3,5,6,7-hexahydro-s-indacen-4-yl)carbamoyl)-5-(2-hydroxypropan-2-yl)thiazole-2-sulfonimidamide] | > 30000
5 | CC(C)(O)c1cnc(S(N)(=O)=NC(=O)Nc2c3c(cc4c2CCC4O)CCC3)s1 (single isomer, unassigned) [Example 655, (S,R) or (S,S)-N′-((1-hydroxy-1,2,3,5,6,7-hexahydro-5-indacen-4-yl)carbamoyl)-5-(2-hydroxypropan-2-yl)thiazole-2-sulfonimidamide] | > 30000
6 | CN(C)C(c1ccc(S(N)(=O)=NC(=O)Nc2c3c(cc4c2CCC4)CCC3)cc1)C(F)(F)F (single isomer, unassigned) [Example 663] | > 30000

same assay, conditions: hTHP-1 assay containing 2% fetal bovine serum, Table B2, class symbols; read-out: IC50

Row | Compound | IC50 [nM]
7 | CC(O)(CO)c1ncc(S(N)(=O)=NC(=O)Nc2c3c(c(C#N)c4c2CCC4)CCC3)s1 (single isomer, unassigned) [Example 634] | 200 to 1000
8 | CC(O)(CO)c1ncc(S(N)(=O)=NC(=O)Nc2c3c(c(C#N)c4c2CCC4)CCC3)s1 (single isomer, unassigned) [Example 636, (S,R) or (R,R)-N′-((8-cyano-1,2,3,5,6,7-hexahydro-s-indacen-4-yl)carbamoyl)-2-(1,2-dihydroxypropan-2-yl)thiazole-5-sulfonimidamide] | 40 to 200
9 | CC(O)(CO)c1ncc(S(N)(=O)=NC(=O)Nc2c3c(c(C#N)c4c2CCC4)CCC3)s1 (single isomer, unassigned) [Example 637, (R,R) or (S,R)-N′-((8-cyano-1,2,3,5,6,7-hexahydro-s-indacen-4-yl)carbamoyl)-2-(1,2-dihydroxypropan-2-yl)thiazole-5-sulfonimidamide] | 200 to 1000
10 | CC(OC(F)F)c1ccc(S(N)(=O)=NC(=O)Nc2c3c(cc4c2CCC4)CCC3)cc1 (single isomer, unassigned) [Example 638] | 1000 to 5000
11 | CC(OC(F)F)c1ccc(S(N)(=O)=NC(=O)Nc2c3c(cc4c2CCC4)CCC3)cc1 (single isomer, unassigned) [Example 640] | 1000 to 5000
12 | CC(OC(F)F)c1ccc(S(N)(=O)=NC(=O)Nc2c3c(cc4c2CCC4)CCC3)cc1 (single isomer, unassigned) [Example 641] | 1000 to 5000
13 | CC(OC(F)F)c1ccc(S(N)(=O)=NC(=O)Nc2c3c(cc4c2CCC4)CCC3)cc1 (single isomer, unassigned) [Example 642] | 5000 to 30000
14 | CN(C)C(c1ccc(S(N)(=O)=NC(=O)Nc2c3c(cc4c2CCC4)CCC3)cc1)C(F)F (single isomer, unassigned) [Example 644, (R,R) or (S,R)-4-(-1-(dimethylamino)-2,2-difluoroethyl)-N′-((1,2,3,5,6,7-hexahydro-s-indacen-4-yl)carbamoyl) benzenesulfonimidamide] | 200 to 1000
15 | CN(C)C(c1ccc(S(N)(=O)=NC(=O)Nc2c3c(cc4c2CCC4)CCC3)cc1)C(F)F (single isomer, unassigned) [Example 647, (S,R) or (R,R)-4-(1-(dimethylamino)-2,2-difluoroethyl)-N′-((1,2,3,5,6,7-hexahydro-s-indacen-4-yl)carbamoyl) benzenesulfonimidamide] | 200 to 1000
16 | NS(=O)(=NC(=O)Nc1c2c(cc3c1CCC3)CCC2)c1ccc(C2CCCN2)cc1 (single isomer, unassigned) [Example 650, (R,S) or (S,S)-N′-((1,2,3,5,6,7-hexahydro-s-indacen-4-yl)carbamoyl)-4-(pyrrolidin-2-yl) benzenesulfonimidamide] | 5000 to 30000
17 | CC(C)(O)c1cnc(S(N)(=O)=NC(=O)Nc2c3c(cc4c2C(O)CC4)CCC3)s1 (single isomer, unassigned) [Example 651, (R,S) or (R,R)-N′-((3-hydroxy-1,2,3,5,6,7-hexahydro-s-indacen-4-yl)carbamoyl)-5-(2-hydroxypropan-2-yl)thiazole-2-sulfonimidamide] | 1000 to 5000
18 | CC(C)(O)c1cnc(S(N)(=O)=NC(=O)Nc2c3c(cc4c2C(O)CC4)CCC3)s1 (single isomer, unassigned) [Example 652, (R,R) or (R,S)-N′-((3-hydroxy-1,2,3,5,6,7-hexahydro-s-indacen-4-yl)carbamoyl)-5-(2-hydroxypropan-2-yl)thiazole-2-sulfonimidamide] | 1000 to 5000
19 | CC(C)(O)c1cnc(S(N)(=O)=NC(=O)Nc2c3c(cc4c2C(O)CC4)CCC3)s1 (single isomer, unassigned) [Example 653, (S,S) or (S,R)-N′-((3-hydroxy-1,2,3,5,6,7-hexahydro-s-indacen-4-yl)carbamoyl)-5-(2-hydroxypropan-2-yl)thiazole-2-sulfonimidamide] | 5000 to 30000
20 | CC(C)(O)c1cnc(S(N)(=O)=NC(=O)Nc2c3c(cc4c2CCC4O)CCC3)s1 (single isomer, unassigned) [Example 657, (R,R) or (R,S)-N′-((1-hydroxy-1,2,3,5,6,7-hexahydro-5-indacen-4-yl)carbamoyl)-5-(2-hydroxypropan-2-yl)thiazole-2-sulfonimidamide] | 1000 to 5000
21 | CC(C)(O)c1cnc(S(N)(=O)=NC(=O)Nc2c3c(cc4c2CCC4O)CCC3)s1 (single isomer, unassigned) [Example 658, (R,S) or (R,R)-N′-((1-hydroxy-1,2,3,5,6,7-hexahydro-5-indacen-4-yl)carbamoyl)-5-(2-hydroxypropan-2-yl)thiazole-2-sulfonimidamide] | 5000 to 30000
22 | CN(C)C(c1ccc(S(N)(=O)=NC(=O)Nc2c3c(cc4c2CCC4)CCC3)cc1)C1CC1 (single isomer, unassigned) [Example 659] | 5000 to 30000
23 | CN(C)C(c1ccc(S(N)(=O)=NC(=O)Nc2c3c(cc4c2CCC4)CCC3)cc1)C1CC1 (single isomer, unassigned) [Example 660] | 200 to 1000
24 | CN(C)C(c1ccc(S(N)(=O)=NC(=O)Nc2c3c(cc4c2CCC4)CCC3)cc1)C1CC1 (single isomer, unassigned) [Example 661] | 200 to 1000
25 | CN(C)C(c1ccc(S(N)(=O)=NC(=O)Nc2c3c(cc4c2CCC4)CCC3)cc1)C1CC1 (single isomer, unassigned) [Example 662] | 200 to 1000
26 | CN(C)C(c1ccc(S(N)(=O)=NC(=O)Nc2c3c(cc4c2CCC4)CCC3)cc1)C(F)(F)F (single isomer, unassigned) [Example 667, (S,R) or (R,R)-4-(1-(dimethylamino)-2,2,2-trifluoroethyl)-N′-((1,2,3,5,6,7-hexahydro-s-indacen-4-yl)carbamoyl) benzenesulfonimidamide] | 200 to 1000
27 | CN(C)[C@H](c1ccc([S@](N)(=O)=NC(=O)Nc2c3c(cc4c2CCC4)CCC3)cc1)C(F)(F)F (single isomer, unassigned) [Example 668, (R,R) or (S,R)-4-(1-(dimethylamino)-2,2,2-trifluoroethyl)-N′-((1,2,3,5,6,7-hexahydro-s-indacen-4-yl)carbamoyl) benzenesulfonimidamide] | 1000 to 5000

same assay, conditions: hTHP-1 assay containing 2% fetal bovine serum, Table B2, given as bound; read-out: IC50

Row | Compound | IC50 [nM]
28 | CN(C)C(c1ccc(S(N)(=O)=NC(=O)Nc2c3c(cc4c2CCC4)CCC3)cc1)C(F)F (single isomer, unassigned) [Example 645, (S,S) or (R,S)-4-(-1-(dimethylamino)-2,2-difluoroethyl)-N′-((1,2,3,5,6,7-hexahydro-s-indacen-4-yl)carbamoyl) benzenesulfonimidamide] | > 30000
29 | CN(C)C(c1ccc(S(N)(=O)=NC(=O)Nc2c3c(cc4c2CCC4)CCC3)cc1)C(F)F (single isomer, unassigned) [Example 646, (R,S) or (S,S)-4-(-1-(dimethylamino)-2,2-difluoroethyl)-N′-((1,2,3,5,6,7-hexahydro-s-indacen-4-yl)carbamoyl) benzenesulfonimidamide] | > 30000
30 | CC(C)(O)c1cnc(S(N)(=O)=NC(=O)Nc2c3c(cc4c2CCC4O)CCC3)s1 (single isomer, unassigned) [Example 656, (S,S) or (S,R)-N′-((1-hydroxy-1,2,3,5,6,7-hexahydro-5-indacen-4-yl)carbamoyl)-5-(2-hydroxypropan-2-yl)thiazole-2-sulfonimidamide] | > 30000
31 | CN(C)C(c1ccc(S(N)(=O)=NC(=O)Nc2c3c(cc4c2CCC4)CCC3)cc1)C(F)(F)F (single isomer, unassigned) [Example 665, (S,S) or (R,S)-4-(1-(dimethylamino)-2,2,2-trifluoroethyl)-N′-((1,2,3,5,6,7-hexahydro-s-indacen-4-yl)carbamoyl) benzenesulfonimidamide] | > 30000
32 | CN(C)C(c1ccc(S(N)(=O)=NC(=O)Nc2c3c(cc4c2CCC4)CCC3)cc1)C(F)(F)F (single isomer, unassigned) [Example 666, (R,S) or (S,S)-4-(1-(dimethylamino)-2,2,2-trifluoroethyl)-N′-((1,2,3,5,6,7-hexahydro-s-indacen-4-yl)carbamoyl) benzenesulfonimidamide] | > 30000
